Data taken from ChEMBL document CHEMBL4477246, “New small molecule inhibitors of histone methyl transferase DOT1L with a nitrile as a non-traditional replacement for heavy halogen atoms” (Bioorg Med Chem Lett, 2016).

Tests used:
[1] = biological target: T1, Histone-lysine N-methyltransferase, H3 lysine-79 specific (Homo sapiens, UniProt Q8TEK3); test: Inhibition of DOT1L (unknown origin) using chicken nucleosome as substrate in presence of [3H]SAM incubated for 1 hr by TopCount method
Target sequence in this assay (Q8TEK3 whole entry): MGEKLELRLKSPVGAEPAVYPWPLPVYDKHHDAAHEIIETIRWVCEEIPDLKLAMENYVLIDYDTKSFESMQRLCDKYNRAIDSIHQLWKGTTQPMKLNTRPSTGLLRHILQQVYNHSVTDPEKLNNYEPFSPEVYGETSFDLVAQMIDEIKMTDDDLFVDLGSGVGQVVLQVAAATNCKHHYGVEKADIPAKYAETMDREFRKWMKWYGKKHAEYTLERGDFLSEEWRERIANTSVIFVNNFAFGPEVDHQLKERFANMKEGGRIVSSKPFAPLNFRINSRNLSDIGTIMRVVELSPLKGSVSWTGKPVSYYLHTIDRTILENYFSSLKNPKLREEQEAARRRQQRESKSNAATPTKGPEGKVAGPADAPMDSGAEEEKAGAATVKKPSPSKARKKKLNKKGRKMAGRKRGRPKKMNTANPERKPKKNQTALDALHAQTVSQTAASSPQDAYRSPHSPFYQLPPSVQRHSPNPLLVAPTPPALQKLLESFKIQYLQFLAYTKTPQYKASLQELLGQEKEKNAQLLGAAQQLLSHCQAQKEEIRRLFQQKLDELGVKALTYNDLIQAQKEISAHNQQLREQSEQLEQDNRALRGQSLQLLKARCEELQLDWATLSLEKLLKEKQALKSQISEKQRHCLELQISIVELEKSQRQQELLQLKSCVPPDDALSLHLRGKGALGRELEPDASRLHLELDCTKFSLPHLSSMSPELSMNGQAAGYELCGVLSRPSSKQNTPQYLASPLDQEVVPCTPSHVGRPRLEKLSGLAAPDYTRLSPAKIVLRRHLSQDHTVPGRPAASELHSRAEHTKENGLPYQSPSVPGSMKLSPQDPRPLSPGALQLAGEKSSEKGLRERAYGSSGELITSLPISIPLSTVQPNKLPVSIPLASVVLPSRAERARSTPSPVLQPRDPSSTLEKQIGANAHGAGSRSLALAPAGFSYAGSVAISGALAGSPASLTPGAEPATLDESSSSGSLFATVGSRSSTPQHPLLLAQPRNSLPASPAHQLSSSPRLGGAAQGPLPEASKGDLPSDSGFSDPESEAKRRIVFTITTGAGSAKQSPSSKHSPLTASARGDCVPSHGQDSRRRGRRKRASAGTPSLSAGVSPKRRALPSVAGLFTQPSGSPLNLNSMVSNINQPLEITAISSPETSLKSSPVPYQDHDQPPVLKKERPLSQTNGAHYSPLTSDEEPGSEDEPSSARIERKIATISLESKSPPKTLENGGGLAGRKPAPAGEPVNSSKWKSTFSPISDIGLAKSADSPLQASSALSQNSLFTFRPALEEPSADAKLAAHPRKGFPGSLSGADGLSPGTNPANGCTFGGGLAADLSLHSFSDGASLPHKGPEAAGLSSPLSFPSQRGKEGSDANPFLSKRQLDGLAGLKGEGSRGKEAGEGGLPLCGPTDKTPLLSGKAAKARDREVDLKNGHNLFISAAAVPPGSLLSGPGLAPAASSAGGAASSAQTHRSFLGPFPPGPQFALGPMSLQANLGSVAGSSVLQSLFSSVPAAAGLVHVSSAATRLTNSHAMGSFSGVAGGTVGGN

[2] = biological target: T2, Histone-lysine N-methyltransferase SETD7 (Homo sapiens, UniProt Q8WTS6); test: Inhibition of SETD7 (unknown origin)
T2 sequence (Q8WTS6 whole entry): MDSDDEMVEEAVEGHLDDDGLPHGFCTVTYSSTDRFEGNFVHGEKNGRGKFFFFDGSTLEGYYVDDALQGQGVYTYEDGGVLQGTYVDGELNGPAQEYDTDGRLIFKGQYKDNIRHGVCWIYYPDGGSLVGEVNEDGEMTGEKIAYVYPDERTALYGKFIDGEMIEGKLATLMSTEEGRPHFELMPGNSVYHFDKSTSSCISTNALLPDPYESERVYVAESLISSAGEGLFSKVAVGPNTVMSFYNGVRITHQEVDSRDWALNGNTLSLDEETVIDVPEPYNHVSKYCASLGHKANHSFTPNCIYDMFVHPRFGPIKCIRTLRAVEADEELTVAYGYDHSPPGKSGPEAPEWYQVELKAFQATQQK

[3] = biological target: Protein arginine N-methyltransferase 5 (Homo sapiens, UniProt O14744); test: Inhibition of PRMT5 (unknown origin)
[4] = biological target: Protein arginine N-methyltransferase 3 (Homo sapiens, UniProt O60678); test: Inhibition of PRMT3 (unknown origin)
[5] = biological target: Histone-lysine N-methyltransferase SUV39H2 (Homo sapiens, UniProt Q9H5I1); test: Inhibition of SUV39H2 (unknown origin)
[6] = biological target: DNA (cytosine-5)-methyltransferase 1 (Homo sapiens, UniProt P26358); test: Inhibition of DNMT1 (unknown origin)
[7] = biological target: T3, Histone-lysine N-methyltransferase EHMT2 (Homo sapiens, UniProt Q96KQ7); test: Inhibition of G9a (unknown origin)
T3 sequence (Q96KQ7 whole entry): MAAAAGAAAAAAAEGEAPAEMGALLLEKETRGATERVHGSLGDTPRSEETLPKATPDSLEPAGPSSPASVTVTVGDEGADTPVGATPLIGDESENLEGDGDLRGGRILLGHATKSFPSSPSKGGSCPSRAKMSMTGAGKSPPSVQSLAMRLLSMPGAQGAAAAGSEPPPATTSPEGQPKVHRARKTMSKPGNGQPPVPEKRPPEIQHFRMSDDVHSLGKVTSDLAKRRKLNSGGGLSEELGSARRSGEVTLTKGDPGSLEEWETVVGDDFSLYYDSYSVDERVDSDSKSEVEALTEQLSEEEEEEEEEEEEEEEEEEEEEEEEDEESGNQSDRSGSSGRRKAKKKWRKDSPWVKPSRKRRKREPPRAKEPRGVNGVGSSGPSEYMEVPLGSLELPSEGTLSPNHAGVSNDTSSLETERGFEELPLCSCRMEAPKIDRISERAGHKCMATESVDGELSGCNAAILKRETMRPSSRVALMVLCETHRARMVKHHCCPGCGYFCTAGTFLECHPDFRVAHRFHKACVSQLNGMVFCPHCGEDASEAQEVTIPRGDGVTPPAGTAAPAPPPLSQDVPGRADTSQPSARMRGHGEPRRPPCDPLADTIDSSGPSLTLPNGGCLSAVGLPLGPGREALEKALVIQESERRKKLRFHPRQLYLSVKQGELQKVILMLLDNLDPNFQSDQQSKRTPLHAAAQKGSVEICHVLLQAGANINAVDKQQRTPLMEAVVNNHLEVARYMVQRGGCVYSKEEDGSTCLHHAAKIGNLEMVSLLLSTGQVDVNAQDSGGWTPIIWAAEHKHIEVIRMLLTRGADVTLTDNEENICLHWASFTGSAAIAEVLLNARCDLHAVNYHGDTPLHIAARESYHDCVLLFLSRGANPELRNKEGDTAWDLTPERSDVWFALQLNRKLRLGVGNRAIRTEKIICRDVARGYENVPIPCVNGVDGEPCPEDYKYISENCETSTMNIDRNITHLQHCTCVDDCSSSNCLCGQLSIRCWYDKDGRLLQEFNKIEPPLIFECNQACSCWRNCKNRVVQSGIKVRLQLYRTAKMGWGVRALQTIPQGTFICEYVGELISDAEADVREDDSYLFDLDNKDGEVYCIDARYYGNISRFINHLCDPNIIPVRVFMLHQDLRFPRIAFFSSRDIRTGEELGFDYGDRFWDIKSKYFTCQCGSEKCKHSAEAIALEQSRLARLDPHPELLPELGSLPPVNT

[8] = biological target: Histone-lysine N-methyltransferase EZH2 (Homo sapiens, UniProt Q15910); test: Inhibition of EZH2 (unknown origin)
[9] = biological target: T1, Histone-lysine N-methyltransferase, H3 lysine-79 specific; test: Inhibition of DOT1L (unknown origin) at 250 uM using chicken nucleosome as substrate in presence of [3H]SAM incubated for 1 hr by TopCount method
Target sequence in this assay (Q8TEK3 whole entry, looked up): as the sequence (Q8TEK3 whole entry) above

Sequence of Histone-lysine N-methyltransferase SUV39H2 (Q9H5I1 whole entry): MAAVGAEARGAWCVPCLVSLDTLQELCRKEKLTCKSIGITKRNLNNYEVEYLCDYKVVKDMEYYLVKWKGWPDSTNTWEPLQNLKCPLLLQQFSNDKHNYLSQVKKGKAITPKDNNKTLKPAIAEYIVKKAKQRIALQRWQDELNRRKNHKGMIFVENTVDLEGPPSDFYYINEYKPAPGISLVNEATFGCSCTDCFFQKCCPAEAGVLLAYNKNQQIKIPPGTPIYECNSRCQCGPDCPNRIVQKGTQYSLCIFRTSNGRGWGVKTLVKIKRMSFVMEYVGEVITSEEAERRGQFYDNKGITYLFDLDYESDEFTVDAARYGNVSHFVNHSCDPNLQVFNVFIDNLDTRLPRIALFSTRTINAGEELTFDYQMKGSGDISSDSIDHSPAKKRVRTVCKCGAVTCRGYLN
Sequence of Protein arginine N-methyltransferase 3 (O60678 whole entry): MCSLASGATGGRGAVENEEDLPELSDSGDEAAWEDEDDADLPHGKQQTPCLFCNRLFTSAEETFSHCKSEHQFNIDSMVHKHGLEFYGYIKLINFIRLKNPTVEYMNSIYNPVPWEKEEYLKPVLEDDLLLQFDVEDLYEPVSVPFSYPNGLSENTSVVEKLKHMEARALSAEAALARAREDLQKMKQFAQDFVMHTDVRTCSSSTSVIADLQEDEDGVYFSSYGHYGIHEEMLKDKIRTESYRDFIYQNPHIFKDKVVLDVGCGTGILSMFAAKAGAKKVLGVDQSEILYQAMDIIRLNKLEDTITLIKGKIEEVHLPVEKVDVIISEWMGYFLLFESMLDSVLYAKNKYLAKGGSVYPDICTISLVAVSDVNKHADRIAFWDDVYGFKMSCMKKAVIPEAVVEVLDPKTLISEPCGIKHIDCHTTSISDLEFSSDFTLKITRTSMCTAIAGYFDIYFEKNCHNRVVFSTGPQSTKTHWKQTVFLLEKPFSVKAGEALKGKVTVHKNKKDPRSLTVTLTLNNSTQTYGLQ
Sequence of Protein arginine N-methyltransferase 5 (O14744 whole entry): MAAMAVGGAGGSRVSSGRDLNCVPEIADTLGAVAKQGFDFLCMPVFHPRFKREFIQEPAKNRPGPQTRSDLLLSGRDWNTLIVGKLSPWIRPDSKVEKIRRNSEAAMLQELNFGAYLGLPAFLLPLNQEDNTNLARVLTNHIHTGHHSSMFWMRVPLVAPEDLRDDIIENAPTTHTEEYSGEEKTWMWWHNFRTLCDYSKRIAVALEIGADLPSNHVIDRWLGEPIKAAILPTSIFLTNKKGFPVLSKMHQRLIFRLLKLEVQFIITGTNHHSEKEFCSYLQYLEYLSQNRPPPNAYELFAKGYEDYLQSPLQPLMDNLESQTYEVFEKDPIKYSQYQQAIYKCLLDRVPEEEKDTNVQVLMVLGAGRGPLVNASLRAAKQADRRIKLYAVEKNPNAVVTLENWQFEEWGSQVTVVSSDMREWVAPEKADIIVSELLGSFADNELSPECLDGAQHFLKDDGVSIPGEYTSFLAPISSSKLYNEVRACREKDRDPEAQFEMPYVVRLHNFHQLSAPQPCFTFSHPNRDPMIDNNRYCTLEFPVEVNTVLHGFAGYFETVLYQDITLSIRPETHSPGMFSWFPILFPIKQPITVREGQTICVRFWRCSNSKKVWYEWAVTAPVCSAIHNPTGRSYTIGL
Sequence of Histone-lysine N-methyltransferase EZH2 (Q15910 whole entry): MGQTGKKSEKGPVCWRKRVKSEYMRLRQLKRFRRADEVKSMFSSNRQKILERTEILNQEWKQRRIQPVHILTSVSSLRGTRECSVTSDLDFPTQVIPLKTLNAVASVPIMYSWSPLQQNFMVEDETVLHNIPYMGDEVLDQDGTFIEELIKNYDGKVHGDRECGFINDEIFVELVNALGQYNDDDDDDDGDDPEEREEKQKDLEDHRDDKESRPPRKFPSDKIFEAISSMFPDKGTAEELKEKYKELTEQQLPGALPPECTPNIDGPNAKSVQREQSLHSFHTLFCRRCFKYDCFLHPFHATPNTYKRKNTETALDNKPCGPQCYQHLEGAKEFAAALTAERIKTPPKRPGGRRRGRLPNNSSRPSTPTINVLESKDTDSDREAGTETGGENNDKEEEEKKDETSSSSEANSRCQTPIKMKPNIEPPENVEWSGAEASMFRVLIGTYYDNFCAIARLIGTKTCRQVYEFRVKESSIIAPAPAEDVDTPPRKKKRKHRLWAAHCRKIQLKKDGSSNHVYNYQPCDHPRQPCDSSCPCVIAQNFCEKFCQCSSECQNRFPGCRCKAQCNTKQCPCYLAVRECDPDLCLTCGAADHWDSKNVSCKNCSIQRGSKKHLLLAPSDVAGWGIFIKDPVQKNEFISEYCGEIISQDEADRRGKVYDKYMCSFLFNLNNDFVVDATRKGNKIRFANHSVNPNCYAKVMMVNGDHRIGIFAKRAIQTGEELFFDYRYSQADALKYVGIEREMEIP

`N#Cc1c(Br)n([C@@H]2O[C@H](CO)[C@@H](O)[C@H]2O)c2ncnc(N)c12` showed an IC50 [1] of 200 µM.

Molecule `N#Cc1cn([C@@H]2O[C@H](CO)[C@@H](O)[C@H]2O)c2ncnc(N)c12` [TOYOCAMYCIN] has an IC50 [1] of 44 µM.

In the case of `N#Cc1cn([C@@H]2O[C@H](CSCC[C@H](N)C(=O)O)[C@@H](O)[C@H]2O)c2ncnc(N)c12`, the IC50 [2] is reported as “Not Active”, the IC50 [3] is reported as 2.4 µM and the IC50 [4] is reported as 0.87 µM. The IC50 [5] was “Not Active”, the IC50 [6] was 0.15 µM and the IC50 [7] was 99 µM. For the same molecule, the IC50 [8] was “Not Active”.

`Nc1ncnc2c1ncn2[C@@H]1O[C@H](CSCC[C@H](N)C(=O)O)[C@@H](O)[C@H]1O` [S-ADENOSYLHOMOCYSTEINE] showed an IC50 ([2]; read-out: IC50) of 47 µM, an IC50 [4] of 2 µM and an IC50 ([5]; read-out: IC50) of 22 µM.

Work on `Nc1ncnc2c1c(I)nn2[C@@H]1O[C@H](CO)[C@@H](O)[C@H]1O` yielded an IC50 [1] of 22 µM.

In the case of `Nc1ncnc2c1c(-c1ncco1)cn2[C@@H]1O[C@H](CO)[C@@H](O)[C@H]1O`, the IC50 [1] is reported as 43 µM.

In the case of `NC(=O)c1cn([C@@H]2O[C@H](CO)[C@@H](O)[C@H]2O)c2ncnc(N)c12` [SANGIVAMYCIN], the IC50 [1] is reported as 26 µM.

`Nc1ncnc2c1c(F)cn2[C@@H]1O[C@H](CO)[C@@H](O)[C@H]1O` showed an IC50 [1] of 200 µM.

In the case of `C#Cc1cn([C@@H]2O[C@H](CO)[C@@H](O)[C@H]2O)c2ncnc(N)c12`, the IC50 [1] is reported as 41 µM.

Molecule `COc1ccc(Cc2cn([C@@H]3O[C@H](CO)[C@@H](O)[C@H]3O)c3ncnc(N)c23)cc1` has an inhibition [9] of 42%.
